Square brackets hold non-standard residues; d marks the D form. Peptide text beside a SMILES is read from it. * marks the point of attachment. ξ: configuration not given here. pY = N[C@@H](Cc1ccc(OP(=O)(O)O)cc1)C(=O)O; NH(1R-phenylethyl) = C[C@@H](N*)c1ccccc1; Dip = N[C@H](C(=O)O)C(c1ccccc1)c1ccccc1; NH(1S-phenylethyl) = C[C@H](N*)c1ccccc1; NMeThr(3ξ) = CN[C@H](C(=O)O)C(C)O; Thr(3ξ) = CC(O)[C@H](N)C(=O)O; Aze = O=C(O)[C@@H]1CCN1; Cbz = O=C(OCc1ccccc1)*; Propionyl = CCC(=O)*; Bz = O=C(c1ccccc1)*; GABA = NCCCC(=O)O
Target: Signal transducer and activator of transcription 3 (Mus musculus, UniProt P42227)
Assay: Fluorescence Polarization Assay
Settings: not given
Description: Fluorescence polarization (FP) binding assay is utilizing the intrinsic property of the fluorescent probe, which will have low polarization value when free in solution. On binding to a target, the polarization of the probe will increase. Reaction mixtures of full length STAT3 alpha and the probe were placed in wells of a 96-well microtiter plate. The test peptide solution was added to each well. Fluorescence polarization was then read in a Tecan Polarian plate reader. The IC50 values were obtained from nonlinear regression analysis in the one-site competition mode. Peptides were assayed three times using three separate Stat3-probe preparations. IC50 values are reported as the mean of three IC50 values +/- the standard deviation.

Chain of Signal transducer and activator of transcription 3 (P42227 whole entry): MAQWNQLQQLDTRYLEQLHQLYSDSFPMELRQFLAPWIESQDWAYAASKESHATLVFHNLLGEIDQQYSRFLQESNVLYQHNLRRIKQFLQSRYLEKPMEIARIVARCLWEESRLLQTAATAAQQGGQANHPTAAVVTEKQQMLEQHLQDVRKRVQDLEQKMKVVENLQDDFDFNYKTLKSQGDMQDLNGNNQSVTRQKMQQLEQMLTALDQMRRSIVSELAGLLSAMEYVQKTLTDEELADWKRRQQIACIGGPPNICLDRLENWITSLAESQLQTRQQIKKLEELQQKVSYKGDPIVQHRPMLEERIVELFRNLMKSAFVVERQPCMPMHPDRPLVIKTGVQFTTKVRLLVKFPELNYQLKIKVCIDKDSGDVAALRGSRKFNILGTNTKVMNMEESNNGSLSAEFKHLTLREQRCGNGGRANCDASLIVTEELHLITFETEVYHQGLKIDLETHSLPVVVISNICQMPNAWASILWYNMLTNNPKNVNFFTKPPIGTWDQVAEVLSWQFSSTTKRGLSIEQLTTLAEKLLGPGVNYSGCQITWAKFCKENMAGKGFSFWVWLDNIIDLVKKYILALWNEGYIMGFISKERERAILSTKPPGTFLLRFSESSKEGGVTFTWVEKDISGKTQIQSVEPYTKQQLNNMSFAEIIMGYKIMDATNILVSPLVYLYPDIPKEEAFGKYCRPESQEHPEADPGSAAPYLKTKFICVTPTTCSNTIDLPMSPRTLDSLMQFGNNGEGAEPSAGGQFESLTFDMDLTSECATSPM

Row | Structure (SMILES) | IC50 [nM]
1 | CC(=O)N[C@@H](Cc1ccc(OP(=O)(O)O)cc1)C(=O)N[C@@H](CC(C)C)C(=O)N1CCC[C@H]1C(=O)N[C@@H](CCC(N)=O)C(=O)N[C@H](C)c1ccccc1 [4-[(2S)-2-{[(2S)-1-[(2S)-2-{[(1S)-3-carbamoyl-1-{[(1R)-1-phenylethyl]carbamoyl}propyl]carbamoyl}pyrrolidin-1-yl]-4-methyl-1-oxopentan-2-yl]carbamoyl}-2-acetamidoethyl]phenoxyphosphonic acid] (Ac-[pY]LPQ-{NH(1R-phenylethyl)}) | 801
2 | CC(=O)N[C@@H](Cc1ccc(OP(=O)(O)O)cc1)C(=O)N[C@@H](CC(C)C)C(=O)N1CCC[C@H]1C(=O)N[C@@H](CCC(N)=O)C(=O)N[C@@H](C)c1ccccc1 [4-[(2S)-2-{[(2S)-1-[(2S)-2-{[(1S)-3-carbamoyl-1-{[(1S)-1-phenylethyl]carbamoyl}propyl]carbamoyl}pyrrolidin-1-yl]-4-methyl-1-oxopentan-2-yl]carbamoyl}-2-acetamidoethyl]phenoxyphosphonic acid] (Ac-[pY]LPQ-{NH(1S-phenylethyl)}) | 596

Second part, the compound after the results:

Row | IC50 [nM] | Structure (SMILES)
3 | 1220 | CC(=O)N[C@@H](Cc1ccc(OP(=O)(O)O)cc1)C(=O)N[C@@H](CC(C)C)C(=O)N1CCC[C@H]1C(=O)N[C@@H](CCC(N)=O)C(=O)N(C)[C@H](C(N)=O)C(C)O (stereo partly drawn) [4-[(2S)-2-{[(2S)-1-[(2S)-2-{[(1S)-3-carbamoyl-1-{[(1S,2S)-1-carbamoyl-2-hydroxypropyl](methyl)carbamoyl}propyl]carbamoyl}pyrrolidin-1-yl]-4-methyl-1-oxopentan-2-yl]carbamoyl}-2-acetamidoethyl]phenoxyphosphonic acid] (Ac-[pY]LPQ[NMeThr(3ξ)]-NH2)
4 | 9810 | CC(=O)N[C@@H](Cc1ccc(OP(=O)(O)O)cc1)C(=O)N[C@@H](CC(C)C)C(=O)N1CCC[C@H]1C(=O)NC1CCCC(C(N)=O)C1 (stereo partly drawn) [4-[(2S)-2-{[(2S)-1-[(2S)-2-[(3-carbamoylcyclohexyl)carbamoyl]pyrrolidin-1-yl]-4-methyl-1-oxopentan-2-yl]carbamoyl}-2-acetamidoethyl]phenoxyphosphonic acid]
5 | 1850 | CC(=O)N[C@@H](Cc1ccc(OP(=O)(O)O)cc1)C(=O)N[C@@H](CC(C)C)C(=O)N1CCC[C@H]1C(=O)N[C@@H](CCC(N)=O)C(=O)N(C)C [4-[(2S)-2-{[(2S)-1-[(2S)-2-{[(1S)-3-carbamoyl-1-(dimethylcarbamoyl)propyl]carbamoyl}pyrrolidin-1-yl]-4-methyl-1-oxopentan-2-yl]carbamoyl}-2-acetamidoethyl]phenoxyphosphonic acid] (Ac-[pY]LPQ-NMe2)
6 | 1780 | CC(=O)N[C@@H](Cc1ccc(OP(=O)(O)O)cc1)C(=O)N[C@@H](CC(C)C)C(=O)N1CCC[C@H]1C(=O)NCCCC(N)=O [4-[(2S)-2-{[(2S)-1-[(2S)-2-[(3-carbamoylpropyl)carbamoyl]pyrrolidin-1-yl]-4-methyl-1-oxopentan-2-yl]carbamoyl}-2-acetamidoethyl]phenoxyphosphonic acid] (Ac-[pY]LP[GABA]-NH2)

Same assay, conditions: pH 7.5; 22 °C

Row | Structure (SMILES) | IC50 [nM]
7 | CCC(=O)N[C@@H](Cc1ccc(OP(=O)(O)O)cc1)C(=O)N[C@@H](CC(C)C)C(=O)N1CCC[C@H]1C(=O)N[C@@H](CCC(N)=O)C(=O)N[C@H](C(N)=O)C(C)O (stereo partly drawn) [4-[(2S)-2-{[(2S)-1-[(2S)-2-{[(1S)-3-carbamoyl-1-{[(1S,2S)-1-carbamoyl-2-hydroxypropyl]carbamoyl}propyl]carbamoyl}pyrrolidin-1-yl]-4-methyl-1-oxopentan-2-yl]carbamoyl}-2-propanamidoethyl]phenoxyphosphonic acid] (Propionyl-[pY]LPQ[Thr(3ξ)]-NH2) | 497
8 | CC(C)C[C@H](NC(=O)[C@H](Cc1ccc(OP(=O)(O)O)cc1)NC(=O)OCc1ccccc1)C(=O)N1CCC[C@H]1C(=O)N[C@@H](CCC(N)=O)C(=O)N[C@H](C(N)=O)C(C)O (stereo partly drawn) [4-[(2S)-2-{[(benzyloxy)carbonyl]amino}-2-{[(2S)-1-[(2S)-2-{[(1S)-3-carbamoyl-1-{[(1S,2S)-1-carbamoyl-2-hydroxypropyl]carbamoyl}propyl]carbamoyl}pyrrolidin-1-yl]-4-methyl-1-oxopentan-2-yl]carbamoyl}ethyl]phenoxyphosphonic acid] (Cbz-[pY]LPQ[Thr(3ξ)]-NH2) | 750
9 | CC(C)C[C@H](NC(=O)[C@H](Cc1ccc(OP(=O)(O)O)cc1)NC(=O)c1ccccc1)C(=O)N1CCC[C@H]1C(=O)N[C@@H](CCC(N)=O)C(=O)N[C@H](C(N)=O)C(C)O (stereo partly drawn) [4-[(2S)-2-{[(2S)-1-[(2S)-2-{[(1S)-3-carbamoyl-1-{[(1S,2S)-1-carbamoyl-2-hydroxypropyl]carbamoyl}propyl]carbamoyl}pyrrolidin-1-yl]-4-methyl-1-oxopentan-2-yl]carbamoyl}-2-(phenylformamido)ethyl]phenoxyphosphonic acid] (Bz-[pY]LPQ[Thr(3ξ)]-NH2) | 814
10 | CC(=O)N[C@@H](Cc1ccc(OP(=O)(O)O)cc1)C(=O)N[C@H](C(=O)N1CCC[C@H]1C(=O)N[C@@H](CCC(N)=O)C(=O)N[C@H](C(N)=O)C(C)O)C(c1ccccc1)c1ccccc1 (stereo partly drawn) [4-[(2S)-2-{[(2S)-1-[(2S)-2-{[(1S)-3-carbamoyl-1-{[(1S,2S)-1-carbamoyl-2-hydroxypropyl]carbamoyl}propyl]carbamoyl}pyrrolidin-1-yl]-1-oxo-3,3-diphenylpropan-2-yl]carbamoyl}-2-acetamidoethyl]phenoxyphosphonic acid] (Ac-[pY][Dip]PQ[Thr(3ξ)]-NH2) | > 100000

Second part, the compound after the results:

Row | IC50 [nM] | Structure (SMILES)
11 | 1890 | CC(=O)N[C@@H](Cc1ccc(OP(=O)(O)O)cc1)C(=O)N[C@@H](Cc1ccccc1)C(=O)N1CCC[C@H]1C(=O)N[C@@H](CCC(N)=O)C(=O)N[C@H](C(N)=O)C(C)O (stereo partly drawn) [4-[(2S)-2-{[(2S)-1-[(2S)-2-{[(1S)-3-carbamoyl-1-{[(1S,2S)-1-carbamoyl-2-hydroxypropyl]carbamoyl}propyl]carbamoyl}pyrrolidin-1-yl]-1-oxo-3-phenylpropan-2-yl]carbamoyl}-2-acetamidoethyl]phenoxyphosphonic acid] (Ac-[pY]FPQ[Thr(3ξ)]-NH2)
12 | 1540 | CC(=O)N[C@@H](Cc1ccc(OP(=O)(O)O)cc1)C(=O)N[C@H](C(=O)N1CCC[C@H]1C(=O)N[C@@H](CCC(N)=O)C(=O)N[C@H](C(N)=O)C(C)O)C(C)C (stereo partly drawn) [4-[(2S)-2-{[(2S)-1-[(2S)-2-{[(1S)-3-carbamoyl-1-{[(1S,2S)-1-carbamoyl-2-hydroxypropyl]carbamoyl}propyl]carbamoyl}pyrrolidin-1-yl]-3-methyl-1-oxobutan-2-yl]carbamoyl}-2-acetamidoethyl]phenoxyphosphonic acid] (Ac-[pY]VPQ[Thr(3ξ)]-NH2)
13 | 1660 | CC(=O)N[C@@H](Cc1ccc(OP(=O)(O)O)cc1)C(=O)N[C@@H](CC(C)C)C(=O)N1CC[C@H]1C(=O)N[C@@H](CCC(N)=O)C(=O)N[C@H](C(N)=O)C(C)O (stereo partly drawn) [4-[(2S)-2-{[(2S)-1-[(2S)-2-{[(1S)-3-carbamoyl-1-{[(1S,2S)-1-carbamoyl-2-hydroxypropyl]carbamoyl}propyl]carbamoyl}azetidin-1-yl]-4-methyl-1-oxopentan-2-yl]carbamoyl}-2-acetamidoethyl]phenoxyphosphonic acid] (Ac-[pY]L[Aze]Q[Thr(3ξ)]-NH2)
